Active and inactive are the calls of the source. No cut-off for these calls is given here.
Experiments:
518A2 = assay: Cytotoxicity against human 518A2 cells after 72 hrs by MTT assay; assay type: functional, cell-based
HT-29 [1] = assay: Cytotoxicity against human HT-29 cells after 72 hrs by MTT assay; assay type: functional, cell-based
HCT-116 = assay: Cytotoxicity against human HCT116 cells after 72 hrs by MTT assay; assay type: functional, cell-based
DLD-1 = assay: Cytotoxicity against human DLD1 cells after 72 hrs by MTT assay; assay type: functional, cell-based
PANC-1 = assay: Cytotoxicity against human PANC1 cells after 72 hrs by MTT assay; assay type: functional, cell-based
[2] = (§1) Cytotoxicity against human KB-V1/Vbl cells after 72 hrs by MTT assay; assay type: functional, cell-based
KB-V1/Vbl = assay: as §1; assay type: functional, cell-based
[3] = (§2) Cytotoxicity against human MCF7/Topo cells after 72 hrs by MTT assay; assay type: functional, cell-based
MCF7/Topo = assay: as §2; assay type: functional, cell-based
HT-29 [4] = assay: Upregulation of cyclin B1 expression in human HT-29 cells at 2.5 to 5 uM after 24 hrs by Western blot analysis; assay type: functional, cell-based
[5] = (§3) Cytotoxicity against human U87 cells after 72 hrs by MTT assay; assay type: functional, cell-based, U-87MG ATCC; conditions: U-87 MG
U-87MG ATCC [6] = assay: as §3; assay type: functional, cell-based
[7] = Cytotoxicity against HDFa after 72 hrs by MTT assay; assay type: cell-based; conditions: Homo sapiens
HT-29 [8] = assay: Cell cycle arrest in human HT-29 cells assessed as accumulation at sub-G1 phase at 1 uM after 24 hrs by propidium iodide staining based flow cytometric analysis (reference value: 0.9 +/- 0.1%); assay type: functional
HT-29 [9] = assay: Cell cycle arrest in human HT-29 cells assessed as accumulation at sub-G1 phase at 2.5 uM after 24 hrs by propidium iodide staining based flow cytometric analysis (reference value: 0.9 +/- 0.1%); assay type: functional
HT-29 [10] = assay: Cell cycle arrest in human HT-29 cells assessed as accumulation at sub-G1 phase at 5 uM after 24 hrs by propidium iodide staining based flow cytometric analysis (reference value: 0.9 +/- 0.1%); assay type: functional
HT-29 [11] = assay: Cell cycle arrest in human HT-29 cells assessed as accumulation at G1 phase at 1 uM after 24 hrs by propidium iodide staining based flow cytometric analysis (reference value: 68 +/- 0.9%); assay type: functional
HT-29 [12] = assay: Cell cycle arrest in human HT-29 cells assessed as accumulation at G1 phase at 2.5 uM after 24 hrs by propidium iodide staining based flow cytometric analysis (reference value: 68 +/- 0.9%); assay type: functional
HT-29 [13] = assay: Cell cycle arrest in human HT-29 cells assessed as accumulation at G1 phase at 5 uM after 24 hrs by propidium iodide staining based flow cytometric analysis (reference value: 68 +/- 0.9%); assay type: functional
HT-29 [14] = assay: Cell cycle arrest in human HT-29 cells assessed as accumulation at S phase at 1 uM after 24 hrs by propidium iodide staining based flow cytometric analysis (reference value: 15.6 +/- 0.3%); assay type: functional
HT-29 [15] = assay: Cell cycle arrest in human HT-29 cells assessed as accumulation at S phase at 2.5 uM after 24 hrs by propidium iodide staining based flow cytometric analysis (reference value: 15.6 +/- 0.3%); assay type: functional
HT-29 [16] = assay: Cell cycle arrest in human HT-29 cells assessed as accumulation at S phase at 5 uM after 24 hrs by propidium iodide staining based flow cytometric analysis (reference value: 15.6 +/- 0.3%); assay type: functional
HT-29 [17] = assay: Cell cycle arrest in human HT-29 cells assessed as accumulation at G2/M phase at 1 uM after 24 hrs by propidium iodide staining based flow cytometric analysis (reference value: 15.5 +/- 0.5%); assay type: functional
HT-29 [18] = assay: Cell cycle arrest in human HT-29 cells assessed as accumulation at G2/M phase at 2.5 uM after 24 hrs by propidium iodide staining based flow cytometric analysis (reference value: 15.5 +/- 0.5%); assay type: functional
HT-29 [19] = assay: Cell cycle arrest in human HT-29 cells assessed as accumulation at G2/M phase at 5 uM after 24 hrs by propidium iodide staining based flow cytometric analysis (reference value: 15.5 +/- 0.5%); assay type: functional
Homo sapiens = organism: Homo sapiens; assay: Inhibition of NF-kappaB in human 518A2 cells assessed as reduction in p65 subunit expression at 0.5 to 1 uM after 24 hrs by Western blot analysis; assay type: cell-based
Danio rerio = organism: Danio rerio; assay: Antiangiogenic activity in 72 hrs post fertilized zebra fish embryo harboring fli1a:EGFP assessed as area of subintestinal veins at 5 uM after 48 hrs by fluorescence microscopic analysis (reference value: 100%); assay type: functional
Gallus gallus [20] = assay: Vascular disruptive activity in 6 days post fertilized chicken egg chorioallantoic/vitelline membrane assessed as degradation of blood vessels at 10 nmol administered topically measured after 6 to 24 hrs by stereo-microscopic analysis; assay type: functional
Gallus gallus [21] = assay: Vascular disruptive activity in 6 days post fertilized chicken egg assessed as area covered by blood vessels at 10 nmol administered topically measured after 6 hrs by light microscopic analysis relative to control; assay type: functional
U-87MG ATCC [22] = assay: Anti-vasculogenic activity in human U87 cells assessed as reduction in formation of cord-like structures at 1.5 uM after 24 hrs by matrigel based light microscopic analysis; assay type: functional, cell-based
U-87MG ATCC [23] = assay: Anti-vasculogenic activity in human U87 cells assessed as reduction in formation of blood-vessel like tubular structures at 1.5 uM after 24 hrs by matrigel based light microscopic analysis; assay type: functional, cell-based
[24] = Cytotoxicity against human U87 cells assessed as cell viability at 10 nmol after 24 hrs by MTT assay relative to control; assay type: cell-based, U-87MG ATCC; conditions: read-out: Activity
U-87MG ATCC [25] = assay: Vascular disruptive activity in human U87 cells assessed as disruption of preformed tubular networks at 1 uM after 24 hrs by matrigel based light microscopic analysis; assay type: functional, cell-based
[26] = Cytotoxicity against human U87 cells assessed as effect on cell viability at 1 uM after 24 hrs by MTT assay; assay type: cell-based; conditions: u-87mg atcc

For `O=C1/C(=C/c2ccccc2F)CNC/C1=C\c1ccccc1F`, the Activity (518A2) was “Dose-dependent effect”, the IC50 (518A2; 518A2, 72 h) was 1.8 µM and the Activity (HT-29 [1]) was “Dose-dependent effect”. The IC50 (HT-29 [1]; HT-29, 72 h) was 1.6 µM, the Activity (HCT-116) was “Dose-dependent effect” and the IC50 (HCT-116; HCT-116, 72 h) was 1.5 µM. For the same compound, the Activity (DLD-1) was “Dose-dependent effect”, the IC50 (DLD-1; DLD-1, 72 h) was 1.3 µM and the Activity (PANC-1) was “Dose-dependent effect”. For the same compound, the IC50 (PANC-1; PANC-1, 72 h) was 1.5 µM, the IC50 [2] was 1.1 µM and the Activity (KB-V1/Vbl) was “Dose-dependent effect”. For the same compound, the IC50 [3] was 2.2 µM, the Activity (MCF7/Topo) was “Dose-dependent effect” and the Activity (HT-29 [4]) was “Active”. For the same compound, the IC50 [5] was 1.4 µM, the Activity (U-87MG ATCC [6]) was “Dose-dependent effect” and the IC50 [7] was 8.5 µM. For the same compound, the Activity (HT-29 [8]) was 3.3%, the Activity (HT-29 [9]) was 12.9% and the Activity (HT-29 [10]) was 7.1%. The Activity (HT-29 [11]) was 59.1%, the Activity (HT-29 [12]) was 38.9% and the Activity (HT-29 [13]) was 35.8%. The Activity (HT-29 [14]) was 21%, the Activity (HT-29 [15]) was 22.3% and the Activity (HT-29 [16]) was 22.6%. It also gave an Activity (HT-29 [17]) of 16.6%, an Activity (HT-29 [18]) of 25.9% and an Activity (HT-29 [19]) of 34.4%. For the same compound, the inhibition (Homo sapiens) was “Active”, the Activity (Danio rerio) was 74% and the Activity (Gallus gallus [20]) was “Active”. For the same compound, the Activity (Gallus gallus [21]) was 43%, the Activity (U-87MG ATCC [22]) was “Active” and the Activity (U-87MG ATCC [23]) was “Active”. For the same compound, the viability at 24 h, 10 nmol [24] was over 85%, the Activity (U-87MG ATCC [25]) was “Active” and the Activity [26] was “Non-Toxic”.
